Data reported in patent publication US9567325B2, “Carboxamide compounds and their use as calpain inhibitors” (AbbVie Deutschland GmbH & Co. KG, priority 2009, dated 2017).

Legend:
[1] = Cytosolic clearance in human liver cytosol; format: in vitro ADME; settings: 0.5 μM compound, 1 mg/ml human liver cytosol, 37° C., pH 7.5; read-out: human cytCL (cytosolic clearance)
[2] = Cytosolic clearance in cynomolgus monkey liver cytosol; format: in vitro ADME; settings: female; 0.5 μM compound, 1 mg/ml cynomolgus monkey liver cytosol, 37° C., pH 7.5; read-out: cyno cytCL (cytosolic clearance)
[3] = biological target: T1, calpain-1 isolated from human erythrocytes (Homo sapiens, UniProt P07384); assay: Calpain I enzyme inhibition in vitro, kinetic fluorescence assay; format: biochemical; settings: apparent Ki calculated from IC50 by Cheng-Prussoff; 100 μM Suc-Leu-Tyr-AMC, pH 7.3, room temperature
T1 construct: 20 nM calpain-1-isolated from human erythrocytes (Calbiochem #208713); purchased Calbiochem 208713; host or cells: human erythrocytes (natural source)
T1 sequence (P07384 1-714): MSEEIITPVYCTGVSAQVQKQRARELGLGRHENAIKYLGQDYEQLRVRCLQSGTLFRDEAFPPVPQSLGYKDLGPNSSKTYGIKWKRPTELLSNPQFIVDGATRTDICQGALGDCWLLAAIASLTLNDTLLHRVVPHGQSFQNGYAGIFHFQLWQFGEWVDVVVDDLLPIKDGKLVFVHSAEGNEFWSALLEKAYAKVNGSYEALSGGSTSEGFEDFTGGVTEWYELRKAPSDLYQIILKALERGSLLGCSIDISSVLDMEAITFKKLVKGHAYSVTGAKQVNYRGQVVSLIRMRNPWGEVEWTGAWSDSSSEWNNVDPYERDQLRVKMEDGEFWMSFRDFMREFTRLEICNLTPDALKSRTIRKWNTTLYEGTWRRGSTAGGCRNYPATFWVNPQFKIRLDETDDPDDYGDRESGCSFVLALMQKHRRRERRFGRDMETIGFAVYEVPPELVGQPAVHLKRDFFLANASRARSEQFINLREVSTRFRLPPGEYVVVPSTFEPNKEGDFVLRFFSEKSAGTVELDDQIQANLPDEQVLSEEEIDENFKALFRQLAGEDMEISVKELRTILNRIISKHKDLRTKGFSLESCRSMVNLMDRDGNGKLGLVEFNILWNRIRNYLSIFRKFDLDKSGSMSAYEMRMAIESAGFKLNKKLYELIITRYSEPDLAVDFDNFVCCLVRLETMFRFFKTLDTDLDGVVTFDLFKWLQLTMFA
T1 sequence (P04632 1-268 partner): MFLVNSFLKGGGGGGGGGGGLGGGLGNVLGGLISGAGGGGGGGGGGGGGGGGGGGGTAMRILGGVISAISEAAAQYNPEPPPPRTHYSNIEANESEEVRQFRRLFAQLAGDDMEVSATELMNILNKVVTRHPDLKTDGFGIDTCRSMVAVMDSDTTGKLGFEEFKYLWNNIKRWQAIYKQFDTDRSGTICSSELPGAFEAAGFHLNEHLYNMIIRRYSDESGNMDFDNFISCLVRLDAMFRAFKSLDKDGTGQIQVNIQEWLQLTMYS
Method: (§1) The following solutions and buffers were employed: • HBS (for 40 ml): 800 μl 1M HEPES; 2.16 ml 100 mM KCl; 4.8 ml 1M NaCl; 3.59 ml 5% glucose; 60 μl 1M MgSO4; 400 μl 100 mM Na pyruvate, 28.19 ml water; pH 7.2-7.5. • lysis buffer (for 20 ml): 400 μl 1M Tris pH 8.2; 2.74 ml 1M NaCl; 520 μl 0.5M EDTA; 2 ml 10% triton X-100; 0.8 ml (=1:25) CompletePlus (1 tablet/2 ml H2O); 200 μl 100 mM Pefabloc; 13.34 ml water, pH 8.2. • TBST (10×) (for 11): 100 mM Tris (12.1 g); 1.5M NaCl (87 g); 1% Tween 20 (10 g), adjusted to pH 8. I Enzyme Inhibition In Vitro: • Testing for blockade of the corresponding enzymic activities was carried out by means of kinetic fluorescence assays (excitation 390 nm, emission 460 nm). • Apparent Ki values were calculated from the experimentally determined IC50 values by the Cheng-Prussoff relation assuming a reversible competitive enzyme inhibition. The Km values of the substrates used under the assay conditions indicated above were: 90 μM (Z-Phe-Arg-AMC, cathepsin B), 10 μM (Z-Gly-Pro-Arg-AMC, cathepsin K), 2 μM (Z-Phe-Arg-AMC, cathepsin L), and 30 μM (Z-Val-Val-Arg-AMC, cathepsin S). • The indicated Ki values are averages of the inhibition constants calculated on the basis of 2 to 4 independent dose-effect plots. • The following assays were used: • 1. Calpain I: • 20 nM calpain-1-isolated from human erythrocytes (Calbiochem #208713), 100 μM Suc-Leu-Tyr-AMC (Bachem #1-1355) as substrate in buffer with 62 mM imidazole, 0.3 mM CaCl2, 0.10% CHAPS, 0.05% BSA, 1 mM DTT at pH 7.3 and room temperature. • 2. Cathepsin B: • 0.25 nM cathepsin B—isolated from human liver (Calbiochem #219362), 100 μM Z-Phe-Arg-AMC (Bachem #1-1160) as substrate 50 mM MES, 2 mM EDTA, 0.05% Brij 35, 2.5 mM L-cysteine, pH 6.0, room temperature. • 3. Cathepsin K: • 3 nM cathepsin K-activated from recombinant human procathepsin K from E. coli (Calbiochem #342001), 10 μM Z-Gly-Pro-Arg-AMC (Biomol #P-142) as substrate in 50 mM MES, 2 mM EDTA, 0.05% Brij 35, 2.5 mM L-cysteine, pH 6.0, room temperature. • 4. Cathepsin L: • 1 nM cathepsin L—isolated from human liver (Calbiochem #219402), 2 μM Z-Phe-Arg-AMC (Bachem #1-1160) as substrate in 50 mM MES, 2 mM EDTA, 0.05% Brij 35, 2.5 mM L-cysteine, pH 6.0, room temperature. • 5. Cathepsin S: • 0.5 nM recombinant human cathepsin S from E. coli (Calbiochem #219343), 20 μM Z-Val-Val-Arg-AMC (Bachem #I-1540) as substrate in 50 mM MES, 2 mM EDTA, 0.05% Brij 35, 2.5 mM L-cysteine, pH 6.0, room temperature. • The results of the in vitro determination are indicated in Table 1. The following abbreviations are used in Table 1: • In the “Calpain activity” column, +++ stands for a calpain Ki (Ki(calpain)) of ≦40 nM, and ++ means: 40 nM<Ki(Calpain)≦100 nM and + means 100 nM<Ki(Calpain)≦300 nM. • The “Sel. cat. B” column indicates the Ki(cathepsin B)/Ki(calpain) ratio. In this connection, ++ means a Ki(cathepsin B)/Ki(calpain) ratio of ≧30 and + means 10≦Ki(cathepsin B)/Ki(calpain)<30. • The “Sel. cat. K” column indicates the Ki(cathepsin K)/Ki(calpain) ratio. In this connection, ++ means a Ki(cathepsin K)/Ki(calpain) ratio of ≧30 and + means 10≦Ki(cathepsin K)/Ki(calpain)<30. • The “Sel. cat. L” column indicates the Ki(cathepsin L)/Ki(calpain) ratio. In this connection, ++ means a Ki(cathepsin L)/Ki(calpain) ratio of ≧50 and + means 30≦Ki(cathepsin L)/Ki(calpain)<50. • The “Sel. cat. S” column indicates the Ki(cathepsin S)/Ki(calpain) ratio. In this connection, ++ means a Ki(cathepsin S)/Ki(calpain) ratio of ≧100 and + means 50≦Ki(cathepsin S)/Ki(calpain)<100.

[4] = biological target: T2, cathepsin B isolated from human liver (Homo sapiens, UniProt P07858); assay: Cathepsin B enzyme inhibition in vitro, kinetic fluorescence assay (selectivity vs calpain); format: biochemical; settings: ratio of Ki values; Z-Phe-Arg-AMC substrate, pH 6.0
T2 construct: 0.25 nM cathepsin B—isolated from human liver (Calbiochem #219362); purchased Calbiochem 219362; host or cells: human liver (natural source)
Method: as §1

[5] = biological target: T3, cathepsin K activated from recombinant human procathepsin K (Homo sapiens, UniProt P43235); assay: Cathepsin K enzyme inhibition in vitro, kinetic fluorescence assay (selectivity vs calpain); format: biochemical; settings: ratio of Ki values; Z-Gly-Pro-Arg-AMC substrate, pH 6.0
T3 construct: purchased Calbiochem 342001; host or cells: E. coli
T3 sequence (P43235 115-329): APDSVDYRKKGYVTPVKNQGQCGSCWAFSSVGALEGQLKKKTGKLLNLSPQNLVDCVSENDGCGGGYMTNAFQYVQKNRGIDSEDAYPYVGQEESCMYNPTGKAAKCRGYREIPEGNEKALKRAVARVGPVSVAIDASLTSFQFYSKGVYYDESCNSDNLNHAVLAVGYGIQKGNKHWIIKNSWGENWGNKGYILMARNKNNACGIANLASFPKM
Method: as §1

[6] = biological target: T4, cathepsin L isolated from human liver (Homo sapiens, UniProt P07711); assay: Cathepsin L enzyme inhibition in vitro, kinetic fluorescence assay (selectivity vs calpain); format: biochemical; settings: ratio of Ki values; Z-Phe-Arg-AMC substrate, pH 6.0
T4 construct: 1 nM cathepsin L—isolated from human liver (Calbiochem #219402); purchased Calbiochem 219402; host or cells: human liver (natural source)
Method: as §1

[7] = biological target: T5, recombinant human cathepsin S (Homo sapiens, UniProt P25774); assay: Cathepsin S enzyme inhibition in vitro, kinetic fluorescence assay (selectivity vs calpain); format: biochemical; settings: ratio of Ki values; Z-Val-Val-Arg-AMC substrate, pH 6.0
T5 construct: purchased Calbiochem 219343; host or cells: E. coli
Method: as §1

T4 sequence (P07711 114-333): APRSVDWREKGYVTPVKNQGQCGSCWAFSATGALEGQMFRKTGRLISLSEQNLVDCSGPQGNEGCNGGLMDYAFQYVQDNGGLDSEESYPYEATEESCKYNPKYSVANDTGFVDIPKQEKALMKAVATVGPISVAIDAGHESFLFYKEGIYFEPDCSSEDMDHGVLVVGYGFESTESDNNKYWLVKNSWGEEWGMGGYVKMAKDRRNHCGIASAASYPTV
T5 sequence (P25774 115-331): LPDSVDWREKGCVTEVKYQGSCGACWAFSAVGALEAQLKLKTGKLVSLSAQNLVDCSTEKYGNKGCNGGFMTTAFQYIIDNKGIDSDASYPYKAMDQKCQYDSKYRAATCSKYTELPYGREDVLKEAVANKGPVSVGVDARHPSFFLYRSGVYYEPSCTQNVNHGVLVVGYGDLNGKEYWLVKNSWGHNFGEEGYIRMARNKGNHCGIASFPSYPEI

Structure (SMILES)	microsomal CLint at 0.5 μM [1]	microsomal CLint at 0.5 μM [2]	Ki [3]	Sel cat. B (Ki(cathepsin B)/Ki(calpain) ratio) [4]	Sel cat. K (Ki(cathepsin K)/Ki(calpain) ratio) [5]	Sel cat. L (Ki(cathepsin L)/Ki(calpain) ratio) [6]	Sel cat. S (Ki(cathepsin S)/Ki(calpain) ratio) [7]
CONC(=O)C(=O)C(Cc1ccccc1)NC(=O)c1cccnc1-c1csc(-c2ccccc2)n1 (stereo not drawn) [Example 14, N-(4-(Methoxyamino)-3,4-dioxo-1-phenylbutan-2-yl)-2-(2-phenylthiazol-4-yl)nicotinamide]	< 14 µL/min/mg	< 18 µL/min/mg	100 to 300 nM				
O=C(NC1CC1)C(=O)C(Cc1ccccc1)NC(=O)c1cccnc1-c1csc(-c2ccccc2)n1 (stereo not drawn) [Example 13, N-(4-(Cyclopropylamino)-3,4-dioxo-1-phenylbutan-2-yl)-2-(2-phenylthiazol-4-yl)nicotinamide]	< 14 µL/min/mg	< 18 µL/min/mg	100 to 300 nM	++ (++ means a Ki(cathepsin B)/Ki(calpain) ratio of ≧30)	+ (+ means 10≦Ki(cathepsin K)/Ki(calpain)<30)	+ (+ means 30≦Ki(cathepsin L)/Ki(calpain)<50)	
NC(=O)C(=O)C(Cc1ccccc1)NC(=O)c1cccnc1-c1csc(-c2ccc3ccccc3c2)n1 (stereo not drawn) [Example 9, N-(4-Amino-3,4-dioxo-1-phenylbutan-2-yl)-2-[2-(naphthalen-2-yl)-1,3-thiazol-4-yl]pyridine-3-carboxamide]			40 to 100 nM	++ (++ means a Ki(cathepsin B)/Ki(calpain) ratio of ≧30)	+ (+ means 10≦Ki(cathepsin K)/Ki(calpain)<30)	++ (++ means a Ki(cathepsin L)/Ki(calpain) ratio of ≧50)	++ (++ means a Ki(cathepsin S)/Ki(calpain) ratio of ≧100)
NC(=O)C(=O)C(Cc1ccccc1)NC(=O)c1cccnc1-c1nc2ccccc2s1 (stereo not drawn) [Example 3, N-(4-Amino-3,4-dioxo-1-phenylbutan-2-yl)-2-(1,3-benzothiazol-2-yl)pyridine-3-carboxamide]			40 to 100 nM	+ (+ means 10≦Ki(cathepsin B)/Ki(calpain)<30)	+ (+ means 10≦Ki(cathepsin K)/Ki(calpain)<30)	++ (++ means a Ki(cathepsin L)/Ki(calpain) ratio of ≧50)	++ (++ means a Ki(cathepsin S)/Ki(calpain) ratio of ≧100)
NC(=O)C(=O)C(Cc1ccccc1)NC(=O)c1cccnc1-c1csc(-c2cccc(C(F)(F)F)c2)n1 (stereo not drawn) [Example 6, N-(4-Amino-3,4-dioxo-1-phenylbutan-2-yl)-2-{2-[3-(trifluoromethyl)phenyl]-1,3-thiazol-4-yl}pyridine-3-carboxamide]			≤ 40 nM	++ (++ means a Ki(cathepsin B)/Ki(calpain) ratio of ≧30)	+ (+ means 10≦Ki(cathepsin K)/Ki(calpain)<30)	++ (++ means a Ki(cathepsin L)/Ki(calpain) ratio of ≧50)	++ (++ means a Ki(cathepsin S)/Ki(calpain) ratio of ≧100)
